# Data as given in US20100297109A1, “METHODS FOR INHIBITING FASCIN” (Cornell University, priority 2007, published 2010).
# Experiments:
# [1] = tested on: mouse embryonic fibroblast (MEF) cells; assay: Wound-healing assay, serum-induced migration of MEF cells; type: cell-based; details: 200 μM
# Drosophila fascin = biological target: T1, Drosophila fascin (Drosophila melanogaster, UniProt Q24524); assay: Migration of fascin siRNA-treated 4T1 cells rescued with Drosophila fascin; type: cell-based; details: Drosophila fascin in fascin siRNA-treated 4T1 cells
# T1 construct: expressed in transfected cells; host or cells: 4T1 mouse mammary tumor cells treated with fascin siRNAs
# T1 sequence (Q24524 1-512): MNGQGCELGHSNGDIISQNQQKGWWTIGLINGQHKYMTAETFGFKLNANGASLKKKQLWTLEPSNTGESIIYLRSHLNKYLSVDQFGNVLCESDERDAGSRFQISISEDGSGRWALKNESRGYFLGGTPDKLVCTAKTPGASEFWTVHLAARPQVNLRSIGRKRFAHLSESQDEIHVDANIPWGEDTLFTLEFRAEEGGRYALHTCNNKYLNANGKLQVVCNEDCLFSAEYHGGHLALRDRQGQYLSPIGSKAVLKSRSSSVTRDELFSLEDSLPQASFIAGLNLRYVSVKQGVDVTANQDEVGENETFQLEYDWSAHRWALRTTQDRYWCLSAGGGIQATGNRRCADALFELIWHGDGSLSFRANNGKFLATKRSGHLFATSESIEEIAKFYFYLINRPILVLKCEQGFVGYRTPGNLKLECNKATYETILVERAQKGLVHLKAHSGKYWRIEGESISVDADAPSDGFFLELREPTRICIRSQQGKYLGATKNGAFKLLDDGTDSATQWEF
# Method: Boyden Chamber Cell Migration Assay. Cells (5×10^4) suspended in starvation medium were added to the upper chamber of an insert (6.5 mm diameter, 8-micrometer pore size, Becton Dickenson), and the insert was placed in a 24-well dish containing starvation medium with or without 10% FBS (Yang et al. 2005, Shan et al. 2006). When used, inhibitors were added to both chambers. Migration assays were carried out for 4-6 hours and cells were fixed with 3.7% formaldehyde. Cells were stained with crystal violet staining solution, and cells on the upper side of the insert were removed with a cotton swab. Three randomly selected fields (10× objectives) on the lower side of the insert were photographed, and the migrated cells were counted. The migration was expressed as either the average number of migrated cells in a field or as percentage of migrated cells in positive control. Percentage was calculated with the formula P=100×(M−Mnc)/Mpc, where P is the percentage of migrated cells, M is the number of migrated cells, Mnc is the number of migrated cells in negative controls, and Mpc is the number of migrated cells in positive controls.
# fascin = fascin (Homo sapiens, UniProt Q16658); assay: GST-fascin and biotin-macroketone interaction; type: binding; parameters: made in house; host or cells: Escherichia coli BL21; details: excess unlabeled compound
# Method: Whole cell lysates from 4T1 mouse breast tumor cells were made. After preclearing the cell lysate with immobilized neutravidin biotin binding protein (Pierce, IL, USA) to remove biotin and avidin-binding proteins, the cell lysates were loaded to a column packed with the biotin-labeled macroketone (conjugated to neutravidin beads). A control column packed with free biotin and neutravidin beads was run side-by-side. After washing the column with 10 bed volumes of lysis buffer with 300 mM NaCl, the bound proteins were eluted with 0.1 M Glycine-HCl at pH 2.8 according to the manufacturer's instruction. […] Protein Expression and Purification. Recombinant GST-fascin fusion protein was produced in BL21 Escherichia coli. A 1-liter culture was grown to an A600 reading of 1.0 and then induced by addition of 0.3 mM isopropyl 1-thio-D-galactopyranoside (IPTG) for 12 hours at 25° C. Cells were flash frozen and then lysed by sonication in Tris-buffered saline. The supernatant was then incubated with glutathione-Sepharose for 2 h at 4° C. After extensive washing, GST-fascin was eluted and concentrated with a Centricon Plus-20 (Millipore). To remove the GST tag from the fusion protein, beads were incubated with thrombin overnight at 4° C. The supernatant was collected and concentrated. GST-fascin and Biotin-macroketone Interaction. […] Proteins associated with biotin-macroketone were precipitated with Untralink-immobilized NeutrAvidin agarose (Pierce). After extensive washing, bound proteins were eluted with SDS sample buffer and resolved by 10% SDS-PAGE. F-Actin Bundling Assay. Actin bundling activity was measured by low speed centrifugation assay and fluorescence microscopy. In low-speed centrifugation assay, monomeric rabbit G-actin was induced to polymerize at room temperature in F-actin buffer (20 mM Tris-HCl at pH 8, 1 mM ATP, 1 mM DTT, 2 mM MgCl2 and 100 mM KCl). Recombinant fascin proteins or control buffer were subsequently incubated with F-actin for 60 min at room temperature and centrifuged for 30 min at 10,000 g in an Eppendorf 5415D table-top centrifuge.
compound,measurement,setting,value
"COC1C=CCCCCC(=O)CCC(C)=CC(C)C1O (stereo not shown) [macroketone, Migrastatin ketone]",effect on serum-induced migration (wound-healing),[1],had no effect
same,sensitivity of rescued migration,Drosophila fascin,no sensitivity
same,competition of binding of biotin-conjugated macroketone to fascin,fascin,efficiently competed
same,competition of binding of biotin-conjugated macroketone to fascin,fascin; listed as unlabeled macroketone,decreased the binding
